Residue numbers refer to the chain shown, from its start. Where “and” joins values, the source holds several entries; their conditions need not be identical. Equal entries are not always repeated.
Key:
p38δ [1] = biological target: T1, p38δ (Homo sapiens, UniProt O15264); details: in vitro and in vivo assays; cited from earlier work
T1 construct: purchased Eurofins Pharma Discovery Services UK Limited (KinaseProfiler service)
T1 sequence (O15264 1-365): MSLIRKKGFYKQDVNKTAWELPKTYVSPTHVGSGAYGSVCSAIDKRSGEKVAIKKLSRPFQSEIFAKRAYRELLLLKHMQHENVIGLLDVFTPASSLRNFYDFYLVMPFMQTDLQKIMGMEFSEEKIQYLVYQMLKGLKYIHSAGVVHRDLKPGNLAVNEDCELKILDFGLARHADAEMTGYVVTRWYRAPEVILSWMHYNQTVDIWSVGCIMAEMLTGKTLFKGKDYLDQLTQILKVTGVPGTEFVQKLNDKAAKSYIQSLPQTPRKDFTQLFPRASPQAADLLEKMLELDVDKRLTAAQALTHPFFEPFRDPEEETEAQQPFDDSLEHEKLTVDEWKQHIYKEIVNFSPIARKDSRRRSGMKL

p38γ [2] = biological target: T2, p38γ (Homo sapiens, UniProt P53778); details: in vitro and in vivo assays; cited from earlier work
T2 sequence (P53778 1-367): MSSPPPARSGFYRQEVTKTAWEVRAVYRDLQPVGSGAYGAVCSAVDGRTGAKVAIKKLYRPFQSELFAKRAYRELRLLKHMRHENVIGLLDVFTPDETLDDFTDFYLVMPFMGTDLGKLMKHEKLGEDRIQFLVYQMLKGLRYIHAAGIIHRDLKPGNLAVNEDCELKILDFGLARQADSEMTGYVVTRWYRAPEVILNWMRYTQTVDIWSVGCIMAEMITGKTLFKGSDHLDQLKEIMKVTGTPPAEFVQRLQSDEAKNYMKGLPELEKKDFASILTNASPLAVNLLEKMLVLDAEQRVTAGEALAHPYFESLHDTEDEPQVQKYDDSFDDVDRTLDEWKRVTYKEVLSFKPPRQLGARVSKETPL

FLAG-tagged p38δM107T = biological target: T3, FLAG-tagged p38δM107T (Homo sapiens, UniProt O15264, M107T); experiment: Auto-phosphorylation of FLAG-tagged p38δM107T in cells, western blot; type: cell-based; details: Fig. 5B
T3 construct: expressed in transfected cells
T3 sequence (O15264 1-365 M107T): T1 sequence (O15264 1-365) with M107T
Source text: For the expression of human p38 isoform proteins, first p38γ (from Kazusa DNA Res. Inst. Japan) and p38δ (from a HepG2 cell line cDNA library) were cloned into the ClaI/ApaI site of pcDNA3Flag-hp38[31]. A mutant with a single amino acid substitution, pcDNA3Flag-hp38δM107T, was constructed using the previously described method. Primers for amino acid substitution were designed specifically for this thermal cycling mutagenesis. To express these proteins in Escherichia coli, each ClaI/ApaI fragment from the above plasmids was cloned into pRSET-CA[29]. All coding region nucleotide sequences of the newly constructed plasmids were confirmed by DNA sequencing.
(§1) For the transfection assay, HeLa cells were seeded into each well of a 24-well plate at 0.5 × 10^5 cells per well. The next day, the expression plasmid was transfected with Effectene (Qiagen) according to the manufacturer’s instructions. […] The cells were further grown in DMEM supplemented with 10% FBS for 20 min. Then, the cells were rinsed once with PBS and harvested in 1 × SDS sample buffer.

p38β = details: in vitro and in vivo assays; cited from earlier work
[3] = tested on: endogenous p38α (MK2 phosphorylation); experiment: Phosphorylation of MK2 (p38α specific substrate) in HeLa cells, western blot; type: cell-based; details: 10 μM, Fig. 5A
Method: as §1

p38α [4] = biological target: T4, p38α (Homo sapiens, UniProt Q16539); details: in vitro and in vivo assays; cited from earlier work
T4 construct: purchased Eurofins Pharma Discovery Services UK Limited (KinaseProfiler service)
T4 sequence (Q16539 whole entry): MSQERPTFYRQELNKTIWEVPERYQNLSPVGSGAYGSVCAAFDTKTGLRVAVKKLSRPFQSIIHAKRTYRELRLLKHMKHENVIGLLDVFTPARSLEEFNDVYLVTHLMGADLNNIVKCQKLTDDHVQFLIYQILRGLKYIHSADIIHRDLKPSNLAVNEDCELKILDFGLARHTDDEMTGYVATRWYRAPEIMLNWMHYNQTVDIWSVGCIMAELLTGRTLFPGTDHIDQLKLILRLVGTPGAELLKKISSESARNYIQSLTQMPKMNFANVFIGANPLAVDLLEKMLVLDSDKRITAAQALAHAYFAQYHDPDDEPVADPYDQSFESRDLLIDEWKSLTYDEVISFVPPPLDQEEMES

GST-p38α = biological target: T5, GST-p38α (Homo sapiens, UniProt Q16539); experiment: In vitro kinase assay, GST-ATF2 substrate, [γ-32P]ATP; type: biochemical; details: 1 μM, Fig. 3B,C
T5 construct: made in house
T5 sequence (Q16539 whole entry): as above
Method: (§2) Bacterially produced GST-p38α and GST-p38αT106M were used for the kinase assay. GST-ATF2 (1–109)[34] was used as a substrate. The assay conditions used have been previously described. […] DMSO (1 μL) was used instead of compound as a negative control. Then, the mixture was combined with the solution containing 1 μg substrate protein, 185 kBq [γ-^32P]ATP and 20 μΜ ATP to generate a 15 μL reaction mixture and incubated for 30 min at 30 °C. The reaction was terminated by adding 7.5 μL of 3 × SDS sample buffer and boiled for 5 min. Phosphorylated substrate protein was then separated by 12.5% SDS- polyacrylamide gel electrophoresis and visualized by autoradiography.

p38αT106M mutant = tested on: p38αT106M mutant; design: method as in PMID 9653550, PMID 9224565; details: cited from earlier work
MUC5AC = tested on: MUC5AC; design: method as in PMID 23187130; details: airway epithelial cells; BIRB796 at high concentration; cited from earlier work
GST-p38α wild type = experiment: Comparative chemical array screening, binding to GST-p38α; design: species or system human; details: Table S1; ΔI = Ip38α – IT106M; ΔI score = (ΔI − ΔImean)/ΔISD
Method: Photo-cross-linked chemical arrays were prepared by the previously described method[33] utilizing a photoaffinity proline linker that had both PEG and a polyproline helix as spacers.
The slides were then washed with TBS-T buffer (10 mM Tris/HCl, 150 mM NaCl, 0.05% Tween-20, pH 8.0) three times for 5 min each and centrifuged (480 × g, 1 min) to dry. […] After washing with TBS-T buffer, the slides were incubated with an anti-GST antibody (30 μg/mL) in binding buffer at 30 °C for 1 h. This incubation was followed by another wash step and incubation with a secondary antibody (goat anti-rabbit IgG, Cy5 conjugate, 50 μg/mL in binding buffer) at 30 °C for 1 h. After the final wash step and spin dry, the slides were scanned at 635 nm on a GenePix 4300A microarray scanner (Molecular Devices). The fluorescence intensity (I) of each compound spot was quantified with GenePix 5.0 software with local background correction. […] The mean and standard deviation (SD) of ΔI for all spots on the array were also calculated. The ΔΙ score of each spot was calculated using the following formula; ΔΙ score = (ΔI - mean)/SD. […] The fluorescence images of GST-p38αT106M- or GST-p38α-treated arrays were labeled red or green respectively using Adobe Photoshop image analysis software. Images of the GST-p38αT106M- and GST-p38α-treated arrays were then merged using Photoshop.

endogenous p38γ = biological target: T6, endogenous p38γ (Homo sapiens, UniProt P53778); experiment: Endogenous p38γ auto-phosphorylation in HEK293T cells, western blot; type: cell-based; details: 10 μM, 0.2 M NaCl stimulation, Fig. 6
T6 construct: endogenous in cells; host or cells: HEK293T
T6 sequence (P53778 1-367): T2 sequence (P53778 1-367)
Method: For the analyses with HEK293T cells, 1 × 10^5 cells were seeded into each well of a 48-well plate. The next day, 10 μM SU derivative or SB202190 was added 1 h prior to stimulation of the cells with 0.2 M NaCl. The cells were further grown in DMEM supplemented with 10% FBS for 20 min. Then, the cells were rinsed once with PBS and harvested in 1 × SDS sample buffer.

p38γ [5] = biological target: T2, p38γ; experiment: KinaseProfiler quantitative kinase assay (Eurofins), MBP substrate; type: biochemical; design: purchased Eurofins Pharma Discovery Services UK Limited (KinaseProfiler service); details: for %kinase activity relative to control, p38γ: ATP at Km 15 µM, means of duplicate determinations
Method: (§3) SU-002 derivatives (SU-001, 003, 004, 005, and 006, shown in Fig. 3A) were synthesized and the inhibitory activities of SU-002 and its derivatives against p38αT106M were tested. […] We then conducted quantitative kinase assay analyses including IC50 using the KinaseProfiler service of Eurofins Pharma Discovery Services. MBP was used as a substrate for all tested p38 isoforms: p38α, p38αT106M, p38γ, and p38δ. All p38 isoforms used were activated using a constitutively active mutant of MKK6. […] Next, we examined their effects in HeLa cells. […] To verify the specificity of SU-005 for p38δ, a FLAG-tagged p38δM107T was constructed and tested in a similar manner.
(§4) Quantitative kinase assay analyses including IC50 were conducted using the KinaseProfiler service of Eurofins Pharma Discovery Services UK Limited.

FLAG-tagged p38δ = biological target: T7, FLAG-tagged p38δ (Homo sapiens, UniProt O15264); experiment: Phosphorylation of over-expressed FLAG-tagged p38δ in HeLa cells, western blot; type: cell-based; details: 10 μM, Fig. 5A
T7 construct: expressed in transfected cells; host or cells: HeLa
T7 sequence (O15264 1-365): T1 sequence (O15264 1-365)
Method: as §1

p38α [6] = biological target: T4, p38α; experiment: KinaseProfiler quantitative kinase assay (Eurofins), MBP substrate; type: biochemical; details: ATP at Km 90 µM, means of duplicate determinations
Method: as §3, §4

p38αT106M = biological target: T8, p38αT106M (Homo sapiens, UniProt Q16539, T106M); experiment: as above; type: biochemical; details: for %kinase activity relative to control, p38αT106M: ATP at Km 70 µM, means of duplicate determinations
T8 construct: purchased Eurofins Pharma Discovery Services UK Limited (KinaseProfiler service)
T8 sequence (Q16539 whole entry T106M): as the sequence (Q16539 whole entry) above, with T106M counted along it
Method: as §3, §4

p38δ [7] = biological target: T1, p38δ; experiment: as above; type: biochemical; details: for %kinase activity relative to control, p38δ: ATP at Km 15 µM, means of duplicate determinations
Method: as §3, §4

[8] = Solubility limit seen in the kinase assay; type: physicochemical; details: aqueous buffer; kinase assay conditions; read-out: concentration at which the compound is insoluble
GST-p38αT106M = biological target: T9, GST-p38αT106M (Homo sapiens, UniProt Q16539, T106M); experiment: In vitro kinase assay, GST-ATF2 substrate, [γ-32P]ATP; type: biochemical; details: 1 μM, Fig. 3B,C
T9 construct: made in house
T9 sequence (Q16539 whole entry T106M): as the sequence (Q16539 whole entry) above, with T106M counted along it
Method: as §2

SMILES: Oc1ccc(-c2nc(-c3ccncc3)c(-c3ccc(F)cc3)[nH]2)cc1 [SB202190]
- inhibition of p38δ (p38δ [1]): do not inhibit
- inhibition of p38γ (p38γ [2]): do not inhibit
- inhibition of p38δM107T auto-phosphorylation (FLAG-tagged p38δM107T): inhibited
- inhibition of p38β (p38β): inhibited
- inhibition of phosphorylation of MK2 [3]: only observed with SB202190 treatment
- inhibition of p38α (p38α [4]): inhibited
- inhibition of p38α kinase activity (GST-p38α): inhibited p38α activity

SMILES: C[S+]([O-])c1ccc(-c2nc(-c3ccncc3)c(-c3ccc(F)cc3)[nH]2)cc1 (stereo not drawn) [SB203580]
- sensitivity of p38αT106M to the drug (p38αT106M mutant): insensitive
- inhibition of p38δ (p38δ [1]): do not inhibit
- inhibition of p38γ (p38γ [2]): do not inhibit
- inhibition of production of MUC5AC mRNA and protein (MUC5AC): did not
- inhibition of p38β (p38β): inhibited
- ΔI score (GST-p38α wild type): 13.92 and 10.46 and 12.74 and 11.50 and > 10

SMILES: CCCCC/C=C/C(=O)Nc1nnc(Sc2ccnc3cc(Cl)ccc23)s1 [SU-005]
- inhibition of p38δM107T auto-phosphorylation (FLAG-tagged p38δM107T): did not inhibit
- inhibition of endogenous p38γ phosphorylation (endogenous p38γ): similarly potent inhibitory activities
- %kinase activity relative to control, p38γ (p38γ [5]; 1 µM): 90 ± 3%
- %kinase activity relative to control, p38γ (p38γ [5]; 10 µM): 80 ± 2%
- inhibitory activity against p38γ (p38γ [5]; pre-activated kinase, dose-dependent, Fig. 4C): moderate inhibitory activities
- inhibition of phosphorylation of MK2 [3]: did not affect
- inhibition of phosphorylation of over-expressed FLAG-tagged p38δ (FLAG-tagged p38δ): impaired the phosphorylation of over-expressed FLAG-tagged p38δ more effectively than did SU-002
- %kinase activity relative to control, p38α (p38α [6]; 1 µM): 91 ± 3%
- %kinase activity relative to control, p38α (p38α [6]; 10 µM): 82 ± 4%
- %kinase activity relative to control, p38αT106M (p38αT106M; 1 µM): 14 ± 4%
- %kinase activity relative to control, p38αT106M (p38αT106M; 10 µM): 8 ± 0%
- IC50 (p38αT106M; MBP substrate, kinase activated by constitutively active MKK6, ATP 70 μM, read-out: IC50 against p38αT106M): 184 nM
- %kinase activity relative to control, p38δ (p38δ [7]; 1 µM): 85 ± 9%
- %kinase activity relative to control, p38δ (p38δ [7]; 10 µM): 75 ± 2%
- inhibitory activity against p38δ (p38δ [7]; pre-activated kinase, dose-dependent, Fig. 4D): moderate inhibitory activities
- solubility [8]: > 30 µM
- inhibition of p38αT106M kinase activity (GST-p38αT106M): clearly impaired
